Source: patent EP1388013B1, “COMPOSITIONS AND METHODS FOR THE USE OF FIBRONECTIN FRAGMENTS IN THE DIAGNOSIS OF CANCER” (THE REGENTS OF THE UNIVERSITY OF MICHIGAN, priority 2001, dated 2002)
No end group written: not given here.

Columns and labels:
[1] = tested on: normal human mammary epithelial cells; assay: SU-ECM invasion assay, normal mammary epithelial cells; type: cell-based; conditions: SU-ECM, serum containing environment; Figure 12
Procedure: (§1) Adult Strongylocentrotus purpuratus sea urchins were obtained from Pacific BioMarine, and their embryos were cultured to the early pluteus stage in artificial sea water at 15°C. SU-ECM were prepared from them by treatment with nonionic detergent and sterilized by dilution in the appropriate media.
(§2) […] When appropriate, purified bovine plasma fibronectin (Sigma, St. Louis, Mo), purified 120 kDa chymotryptic fragment (Gibco BRL), PHSRN or PHSCN peptides (synthesized at the Biomedical Research Core Facilities of the University of Michigan), or GRGDSP or GRGESP peptides (Gibco BRL) were added to the resuspended cells prior to placement of the cells on SU-ECM. In each well of a plate used for an invasion assay, SU-ECM were placed in 0.5 ml of the appropriate medium, and 0.5ml of the resuspended cells dropped on their exterior surfaces. Invasion assays were incubated 1 to 16 hours prior to scoring. If some circumstances, invasion assays were fixed in phosphate-buffered saline (PBS) with 2% formaldehyde for 5 minutes at room temperature, then rinsed into PBS.
(§3) Invasion assays were coded and scored blindly by microscopic examination under phase contrast at 200- and 400-fold magnification. Each cell contacting an SU-ECM was scored for its position relative to the exterior or interior surfaces. A cell was judged to have invaded if it was located on an interior surface below the focal plane passing through the upper surface of the SU-ECM, but above the focal plane passing through its lower surface. The minimum viability of the cells in each assay was always ascertained at the time of assay by determining the fraction of spread, adherent cells on the bottom of each well scored.
(§4) An invasion frequency is defined as the fraction of cells in contact with basement membranes which were located in their interiors at the time of assay. […] Invasion frequencies were determined multiple times for each cell type assayed. For each type of cell assayed the mean and standard deviation of the invasion frequencies were calculated. […]

[2] = tested on: normal human prostate epithelial cells; assay: SU-ECM invasion assay, normal prostate epithelial cells; type: cell-based; conditions: SU-ECM, serum containing environment; Figure 12
Procedure: as §1, §2, §3, §4

neonatal fibroblasts = assay: SU-ECM invasion assay, neonatal fibroblasts; type: cell-based, human
Excerpt: In one example cells for the invasion assay are harvested by rinsing in Hanks' balanced salt solution, followed by brief treatment with 0.25% trypsin, 0.02% EDTA, and pelleting and resuspension in the appropriate medium with or without 5% FCS at a density of about 50,000 cells per ml. When appropriate, purified bovine plasma fibronectin (from Sigma, St. Louis, Mo), purified 120 kDa chymotryptic fragment (Gibco BRL) or PHSRN peptides (synthesized at the Biomedical Research Core Facilities of the University of Michigan) are added to the resuspended cells prior to placement of the cells on SU-ECM. In each well of a plate used for an invasion assay, SU-ECM were placed in 0.5 ml of the appropriate medium, and 0.5ml of the resuspended cells dropped on their exterior surfaces. Invasion assays were incubated 1 to 16 hours prior to assay. If some circumstances, invasion assays were fixed in phosphate-buffered saline (PBS) with 2% formaldehyde for 5 minutes at room temperature, then rinsed into PBS.
as §3, with “are” for “were”, “is” for “was”
An invasion frequency is defined as the fraction of cells in contact with basement membranes which are located in their interiors at the time of assay. Thus, an invasion frequency of 1 denotes invasion by 100% of the cells in contact with basement membranes. Invasion frequencies are determined multiple times for each cell type assayed. For each type of cell assayed the mean and standard deviation of the invasion frequencies were calculated.
In this example, the invasiveness of neonatal fibroblasts into an SU-ECM invasion substrate is considered. Experiments were performed under serum-free conditions, or in medium with 10% fetal calf serum (FCS). Neither serum-free medium nor medium containing serum supported fibroblast invasion. However, consistent with the induction of metalloproteinase gene transcription by the 120 kDa fragment of plasma fibronectin (pFn) containing the cell-binding domain, the 120 kDa fragment induced fibroblast invasion in the presence or in the absence of serum. […]

[3] = tested on: Mouse muscle satellite cells; assay: SU-ECM invasion assay, muscle satellite cells; type: cell-based; conditions: 1 microgram per ml, presence or absence of serum; Figure 13
Excerpt: In one example cells for the invasion assay are harvested by rinsing in Hanks' balanced salt solution, followed by brief treatment with 0.25% trypsin, 0.02% EDTA, and pelleting and resuspension in the appropriate medium with or without 5% FCS at a density of about 50,000 cells per ml. When appropriate, purified bovine plasma fibronectin (from Sigma, St. Louis, Mo), purified 120 kDa chymotryptic fragment (Gibco BRL) or PHSRN peptides (synthesized at the Biomedical Research Core Facilities of the University of Michigan) are added to the resuspended cells prior to placement of the cells on SU-ECM. […]
Invasion assays are coded and scored blindly by microscopic examination under phase contrast at 200- and 400-fold magnification. Each cell contacting an SU-ECM is scored for its position relative to the exterior or interior surfaces. […] The minimum viability of the cells in each assay is always ascertained at the time of assay by determining the fraction of spread, adherent cells on the bottom of each well scored.
An invasion frequency is defined as the fraction of cells in contact with basement membranes which are located in their interiors at the time of assay. […] Invasion frequencies are determined multiple times for each cell type assayed. For each type of cell assayed the mean and standard deviation of the invasion frequencies were calculated. […]

PHSRN [PHSRN]
induction of invasive behavior of human mammary epithelial cells [1]: induces the invasive behaviors
induction of invasive behavior of human prostate epithelial cells [2]: induces the invasive behaviors
induction of fibroblast invasion of SU-ECM, dose response (neonatal fibroblasts; 10 to 3000 ng per ml, presence or absence of serum, log-linear, Figure 10): able to induce fibroblast invasion
induction of fibroblast invasion of SU-ECM (neonatal fibroblasts; in the presence (10% FCS) or absence of serum, molar concentration equivalent to plasma fibronectin in serum, Figure 9): contained all the invasion-stimulatory activity
induction of fibroblast invasion of SU-ECM (neonatal fibroblasts; serum-free SU-ECM): induced
induction of SU-ECM invasion by muscle satellite cells [3]: induced the invasion
